The values that follow come from patent US20240109893A1, “PREPARATION AND APPLICATION METHOD OF HETEROCYCLIC COMPOUNDS AS KRAS INHIBITOR” (SHANGHAI KECHOW PHARMA, INC., priority 2020, published 2024).

As a reminder, the IC50 is the midpoint of a concentration-inhibition curve. A higher IC50 goes with lower potency.

This experiment relates to H358 cells. The experiment is described as follows: Cell activity experiment: activity test of H358 cells (MTT, 5 days). It is filed as cell-based. As to conditions: 5 days incubation, absorbance 492 nm. In outline:
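H358 cells seeded 90 μL at 55555 cells/mL, grown 24 h, then exposed to 3-fold serial compound dilutions (final top 10000 nM, 0.5% DMSO) in triplicate for 5 days at 37° C., 5% CO2. Viability by MTT (4 h), formazan dissolved in DMSO, absorbance at 492 nm.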

For the molecule `C=CC(=O)N1CCN(c2nc(OC[C@@H]3CCCN3C)nc3c(F)c(-c4cccc5ccc(F)c(Cl)c45)c(F)cc23)C[C@@H]1CC#N` [Example 431], the IC50 (Homo sapiens, NCI-H358, 120 h) was found to be 148 nM.
Still for that read-out and setting: as for `C=CC(=O)N1CCN(c2nc(OC[C@@H]3C[C@@H](F)CN3C)nc3c(F)c(-c4cccc5c4CCCC5)c(F)cc23)C[C@@H]1CC#N` [Example 432], the figure is 2.4 nM; as for `C=CC(=O)N1CCN(c2nc(OC[C@@H]3CCCN3C)nc3cc(-c4cccc5ccc(F)c(Cl)c45)c(Cl)cc23)C[C@@H]1CC#N` [Example 466], 65 nM.
Under “Homo sapiens, NCI-H358, 120 h”, `C=CC(=O)N1CCN(c2nc(OC[C@@H]3C[C@@H](F)CN3C)nc3cc(-c4cccc5c4CCCC5)c(Cl)cc23)C[C@@H]1CC#N` [Example 467] gave an IC50 of 80 nM.
On the same count and under the same terms, as for `C=CC(=O)N1CCN(c2nc(OC[C@@H]3C[C@@H](F)CN3C)nc3cc(-c4cccc5cccc(Cl)c45)c(Cl)cc23)C[C@@H]1CC#N` [Example 468], the figure is 75 nM.
Regarding `C=CC(=O)N1CCN(c2nc(OC[C@@H]3C[C@@H](F)CN3C)nc3cc(-c4cccc5ccc(F)c(Cl)c45)c(Cl)cc23)C[C@@H]1CC#N` [Example 469], the IC50 (Homo sapiens, NCI-H358, 120 h) was determined as 70 nM.
Still for that read-out and setting: as for `C=CC(=O)N1CCN(c2nc(OCC34CCCN3CCC4)nc3cc(-c4cccc5c4CCCC5)c(Cl)cc23)C[C@@H]1CC#N` [Example 470], the figure is 50 nM; as for `C=CC(=O)N1CC[C@H]2[C@H]1CN2c1nc(OCC23CCCN2CCC3)nc2cc(-c3cccc4cccc(Cl)c34)c(Cl)cc12` [Example 471, 1-((1R,5S)-6-(6-chloro-7-(8-chloronaphthalen-1-yl)-2-((tetrahydro-1H-pyrrolizin-7a(5H)-yl)methoxy)quinazolin-4-yl)-2,6-diazabicyclo[3.2.0]hept-2-yl)prop-2-en-1-one], 45 nM.
On to `C=CC(=O)N1CC[C@H]2[C@H]1CN2c1nc(OCC23CCCN2CCC3)nc2cc(-c3cccc4ccc(F)c(Cl)c34)c(Cl)cc12` [Example 472, 1-((1R,5S)-6-(6-chloro-7-(8-chloro-7-fluoronaphthalen-1-yl)-2-((tetrahydro-1H-pyrrolizin-7a(5H)-yl)methoxy)quinazolin-4-yl)-2,6-diazabicyclo[3.2.0]hept-2-yl)prop-2-en-1-one], for which it took 40 nM to reach half-maximal inhibition (Homo sapiens, NCI-H358, 120 h) (IC50).
In turn, `C=CC(=O)N1CC[C@H]2[C@H]1CN2c1c(Cl)c(-c2cccc3c2CCCC3)cc2nc(OC[C@@]34CCCN3C[C@H](F)C4)ncc12` [Example 473] registered a concentration for half-maximal inhibition (IC50) of 35 nM.
On the same count and under the same terms, as for `C=CC(=O)N1CC[C@H]2[C@H]1CN2c1nc(OC[C@@]23CCCN2C[C@H](F)C3)nc2cc(-c3cccc4cccc(Cl)c34)c(Cl)cc12` [Example 474], the figure is 30 nM; as for `C=CC(=O)N1CC[C@H]2[C@H]1CN2c1nc(OC[C@@]23CCCN2C[C@H](F)C3)nc2cc(-c3cccc4ccc(F)c(Cl)c34)c(Cl)cc12` [Example 475], 25 nM.
`C=CC(=O)N1CCN(c2nc(OC[C@@]34CCCN3C[C@H](F)C4)nc3c(F)c(-c4cccc5cccc(Cl)c45)c(Cl)cc23)C[C@@H]1CC#N` [Example 510] had an IC50 (Homo sapiens, NCI-H358, 120 h) of 130 nM.
On to `C=CC(=O)N1CCN(c2nc(OC[C@@H]3CCCN3C)nc3cc(-c4cccc5c4C4CC4C5)ccc23)C[C@@H]1CC#N` (stereo partly drawn) [Example 536], for which the IC50 (Homo sapiens, NCI-H358, 120 h) came out at 30 nM.
The same measure, in the same setting: as for `C=C(F)C(=O)N1CCN(c2nc(OC[C@@H]3CCCN3C)nc3cc(-c4cccc5c4C4CC4C5)ccc23)C[C@@H]1CC#N` (stereo partly drawn) [Example 537, 2-((2S)-1-(2-fluoroacryloyl)-4-(2-(((S)-1-methylpyrrolidin-2-yl)methoxy)-7-(1,1a,6,6a-tetrahydrocyclopropa[a]inden-2-yl)quinazolin-4-yl)piperazin-2-yl)acetonitrile], the figure is 150 nM; as for `C=CC(=O)N1CCN(c2nc(OC[C@@H]3CCCN3C)nc3c(F)c(N4CCCc5cc(F)ccc54)c(Cl)cc23)CC1` [Example 615, (S)-1-(4-(6-chloro-8-fluoro-7-(6 fluoro-3,4-dihydroquinoline-1(2H)-yl)-2-((1-methylpyrrolidin-2-yl)methoxy)quinazolin-4-yl)piperazin-1-yl)prop-2-en-1-one], 1010 nM; as for `C=CC(=O)N1CCN(c2nc(OC[C@@H]3CCCN3C)nc3c(F)c(N4CCCc5cc(F)ccc54)ccc23)C[C@@H]1CC#N` [Example 616], 473 nM.
Where the note is “Homo sapiens, NCI-H358, 120 h”, `C=CC(=O)N1CCN(c2nc(OC[C@@H]3CCCN3C)nc3c(F)c(N4CCc5cc(F)ccc54)ccc23)CC1` [Example 617] displayed an IC50 of 884 nM.
Still for that read-out and setting: as for `C=CC(=O)N1CCN(c2nc(OC[C@@H]3CCCN3C)nc3cc(N4CCCc5cccc(Cl)c54)ccc23)C[C@@H]1CC#N` [Example 618], the figure is 200 nM; as for `C=C(F)C(=O)N1CCN(c2nc(OC[C@@H]3CCCN3C)nc3cc(N4CCCc5cccc(Cl)c54)ccc23)C[C@@H]1CC#N` [Example 619, 2-((S)-4-(7-(8-chloro-3,4-dihydroquinoline-1(2H)-yl)-2-(((S)-1-methylpyrrolidin-2-yl)methoxy)quinazolin-4-yl)-1-(2-fluoroacryloyl)piperazin-2-yl)acetonitrile], 496 nM; as for `C=CC(=O)N1CCN(c2c(C#N)c(OCC34CCCN3CCC4)nc3cc(-c4cccc5ccc(F)c(Cl)c45)ccc23)C[C@@H]1CC#N` [Example 620], 138 nM.
Same read-out and setting: as for `C=CC(=O)N1CCN(c2c(CC#N)c(OCC34CCCN3CCC4)nc3cc(-c4cccc5ccc(F)c(Cl)c45)c(F)cc23)C[C@@H]1CC#N` [Example 621, (S)-4-(4-acryloyl-3-(cyanomethyl)piperazin-1-yl)-7-(8-chloro-7-fluoronaphthalen-1-yl)-6-fluoro-2-((tetrahydro-1H-pyrrolizin-7a(5H)-yl)methoxy)quinoline-3-acetonitrile], the figure is 330 nM.
`C=CC(=O)N1CCN(c2c(C#N)c(OC[C@@H]3CCCN3C)nc3cc(-c4cccc5c4CCCC5)c(Cl)cc23)C[C@@H]1CC#N` [Example 622] came in with a half-maximal inhibitory concentration (IC50) of 231 nM.
`C=CC(=O)N1CCN(C2=C(C#N)C(OC[C@@H]3CCCN3C)=NC3C=C(c4cccc5ccc(F)c(Cl)c45)C=CC23)C[C@@H]1CC#N` (stereo partly drawn) [Example 623] showed an IC50 (Homo sapiens, NCI-H358, 120 h) of 200 nM.
For the molecule `C=C(F)C(=O)N1CCN(C2=C(C#N)C(OC[C@@H]3CCCN3C)=NC3C=C(c4cccc5ccc(F)c(Cl)c45)C=CC23)C[C@@H]1CC#N` (stereo partly drawn) [Example 624], the 50% inhibitory concentration (IC50) (Homo sapiens, NCI-H358, 120 h) amounted to 800 nM.
In turn, `C=CC(=O)N1CCN(C2=C(C#N)C(OC[C@@H]3C[C@@H](F)CN3C)=NC3C=C(c4cccc5ccc(F)c(Cl)c45)C=CC23)C[C@@H]1CC#N` (stereo partly drawn) [Example 625] yielded an IC50 (Homo sapiens, NCI-H358, 120 h) of 850 nM.
With `C=C(F)C(=O)N1CCN(C2=C(C#N)C(OC[C@@H]3C[C@@H](F)CN3C)=NC3C=C(c4cccc5ccc(F)c(Cl)c45)C=CC23)C[C@@H]1CC#N` (stereo partly drawn) [Example 626], under “Homo sapiens, NCI-H358, 120 h”, half-maximal inhibition (IC50) was put at 1500 nM.
Still for that read-out and setting: as for `C=C(F)C(=O)N1CCN(C2=C(C#N)C(OCC34CCCN3CCC4)=NC3C=C(c4cccc5ccc(F)c(Cl)c45)C=CC23)C[C@@H]1CC#N` (stereo partly drawn) [Example 627], the figure is 120 nM; as for `C=CC(=O)N1CCN(C2=C(C#N)C(OC[C@@]34CCCN3C[C@H](F)C4)=NC3C=C(c4cccc5ccc(F)c(Cl)c45)C=CC23)C[C@@H]1CC#N` (stereo partly drawn) [Example 628], 60 nM.
Still for that read-out and setting: as for `C=C(F)C(=O)N1CCN(C2=C(C#N)C(OC[C@@]34CCCN3C[C@H](F)C4)=NC3C=C(c4cccc5ccc(F)c(Cl)c45)C=CC23)C[C@@H]1CC#N` (stereo partly drawn) [Example 629], the figure is 120 nM.
